# Values of other authors in PubChem BioAssay AID1259409 (Chemical Carcinogenesis Research Information System (CCRIS), 2018).
# Tested on: rodent chemically induced tumor inhibition, incidence and multiplicity
# Assay: CCRIS tumor inhibitor studies
# Settings: Carcinogen: PHENACETIN, 62-44-2, N-BUTYL-N-(4-HYDROXYBUTYL)NITROSAMINE, 3817-11-6, Carcinogen: PHENACETIN, 62-44-2, N-BUTYL-N-(4-HYDROXYBUTYL)NITROSAMINE, 3817-11-6, Dose [Inhibitor]: 0, Route [Inhibitor]: SUBCUTANEOUS, Species: MOUSE, Strain/Sex: NON/SHI/MALE, Promoter: NONE USED
compound,measurement,setting,value
CC[C@H](C)[C@@H](NC(=O)[C@@H](CCC(=O)O)NC(=O)[C@@H](CO)NC(=O)[C@@H](CO)NC(=O)[C@H](NC(=O)[C@@H](CC(=O)O)NC(=O)[C@H](NC(=O)[C@H](C)NC(=O)[C@H](C)NC(=O)[C@@H](CC(=O)O)NC(=O)[C@@H](CO)NC(=O)[C@H](N)CS)C(C)C)C(C)C)C(=O)N[C@@H](C(=O)N[C@@H](C(=O)N[C@H](CCCCN)C(=O)N[C@H](CC(=O)O)C(=O)N[C@H](CC(C)C)C(=O)N[C@H](CCCCN)C(=O)N[C@H](CCC(=O)O)C(=O)N[C@H](CCCCN)C(=O)N[C@H](CCCCN)C(=O)N[C@H](CCC(=O)O)C(=O)N[C@@H](C(=O)N[C@@H](C(=O)N[C@H](CCC(=O)O)C(=O)N[C@H](CCC(=O)O)C(=O)N[C@@H](C)C(=O)N[C@H](CCC(=O)O)C(=O)O)C(C)C)C(C)C)C(C)C)[C@H](C)O,"tumour outcome (control, treated, inhibition, significance)","60 UG IN 0.1 ML SALINE 2/WK FOR 6 WK CONCURRENTLY WITH BBN TREATMENT (STUDY DURATION: 34 WK), Target Tissue: Type of Lesion: URINARY BLADDER: CARCINOMA, Dose [Carcinogen]: 2% PHENACETIN IN DIET FOR 12 WK FOLLOWED BY 0.05% BBN IN DRINKING WATER FOR 6 WK","7/20 (35%), 5/19 (26%), 26%, not significant"
same,"tumour outcome (control, treated, inhibition, significance)","60 UG IN 0.1 ML SALINE 2/WK FOR 16 WK BEGINNING POST CARCINOGEN TREATMENT (STUDY DURATION: 30 WK), Target Tissue: Type of Lesion: RENAL PELVIS: CARCINOMA, Dose [Carcinogen]: 2% PHENACETIN IN DIET FOR 8 WK FOLLOWED BY 0.05% BBN IN DRINKING WATER FOR 6 WK","2/11 (18%), 8/12 (67%), -272%, not significant"
same,"tumour outcome (control, treated, inhibition, significance)","60 UG IN 0.1 ML SALINE 2/WK FOR 16 WK BEGINNING POST CARCINOGEN TREATMENT (STUDY DURATION: 30 WK), Target Tissue: Type of Lesion: URINARY BLADDER: CARCINOMA, Dose [Carcinogen]: 2% PHENACETIN IN DIET FOR 8 WK FOLLOWED BY 0.05% BBN IN DRINKING WATER FOR 6 WK","2/11 (18%), 3/12 (25%), -39%, not significant"
same,"tumour outcome (control, treated, inhibition, significance)","60 UG IN 0.1 ML SALINE 2/WK FOR 16 WK BEGINNING POST CARCINOGEN TREATMENT (STUDY DURATION: 34 WK), Target Tissue: Type of Lesion: RENAL PELVIS: CARCINOMA, Dose [Carcinogen]: 2% PHENACETIN IN DIET FOR 12 WK FOLLOWED BY 0.05% BBN IN DRINKING WATER FOR 6 WK","9/20 (45%), 10/18 (56%), -24%, not significant"
same,"tumour outcome (control, treated, inhibition, significance)","60 UG IN 0.1 ML SALINE 2/WK FOR 16 WK BEGINNING POST CARCINOGEN TREATMENT (STUDY DURATION: 34 WK), Target Tissue: Type of Lesion: URINARY BLADDER: CARCINOMA, Dose [Carcinogen]: 2% PHENACETIN IN DIET FOR 12 WK FOLLOWED BY 0.05% BBN IN DRINKING WATER FOR 6 WK","7/20 (35%), 4/18 (22%), 37%, not significant"
same,"tumour outcome (control, treated, inhibition, significance)","60 UG IN 0.1 ML SALINE 2/WK FOR 22 WK BEGINNING POST PHENACETIN TREATMENT (STUDY DURATION: 30 WK), Target Tissue: Type of Lesion: RENAL PELVIS: CARCINOMA, Dose [Carcinogen]: 2% PHENACETIN IN DIET FOR 8 WK FOLLOWED BY 0.05% BBN IN DRINKING WATER FOR 6 WK","2/11 (18%), 2/12 (17%), 5%, not significant"
same,"tumour outcome (control, treated, inhibition, significance)","60 UG IN 0.1 ML SALINE 2/WK FOR 22 WK BEGINNING POST PHENACETIN TREATMENT (STUDY DURATION: 30 WK), Target Tissue: Type of Lesion: URINARY BLADDER: CARCINOMA, Dose [Carcinogen]: 2% PHENACETIN IN DIET FOR 8 WK FOLLOWED BY 0.05% BBN IN DRINKING WATER FOR 6 WK","2/11 (18%), 1/12 (8%), 56%, not significant"
same,"tumour outcome (control, treated, inhibition, significance)","60 UG IN 0.1 ML SALINE 2/WK FOR 22 WK BEGINNING POST PHENACETIN TREATMENT (STUDY DURATION: 34 WK), Target Tissue: Type of Lesion: RENAL PELVIS: CARCINOMA, Dose [Carcinogen]: 2% PHENACETIN IN DIET FOR 12 WK FOLLOWED BY 0.05% BBN IN DRINKING WATER FOR 6 WK","9/20 (45%), 13/19 (68%), -51%, not significant"
same,"tumour outcome (control, treated, inhibition, significance)","60 UG IN 0.1 ML SALINE 2/WK FOR 22 WK BEGINNING POST PHENACETIN TREATMENT (STUDY DURATION:34 WK), Target Tissue: Type of Lesion: URINARY BLADDER: CARCINOMA, Dose [Carcinogen]: 2% PHENACETIN IN DIET FOR 12 WK FOLLOWED BY 0.05% BBN IN DRINKING WATER FOR 6 WK","7/20 (35%), 7/19 (37%), -6%, not significant"
